Source: US20140341916A1, “THERAPEUTIC COMBINATIONS AND METHODS OF TREATING MELANOMA” (Genentech, Inc., priority 2011, published 2014)

Legend:
ETBR total protein = ETBR total protein in melanoma cell lines, Western blot; assay type: cell-based, human; details: 24 h
Protocol: (§1) Melanoma cell lines UACC-257X2.2, A2058, COLO 829, IPC-298 (ATCC) were treated with a BRAF inhibitor drug (“BRAFi”), specifically RG7204 at varying concentrations by adding the appropriate drug volume to cells in culture for 24 h on four-well dishes.
To test whether the increase in ETBR transcripts due to BRAFi treatment also results in any changes in ETBR total protein levels, Western blot experiments were performed on the same cell lines treated with BRAFi RG7204 as described above. For Western blotting, the following reagents were used: for detection of proteins: an anti-ETBR in-house generated monoclonal antibody 1H1.8.5, anti-Phospho-p44/42 MAPK (Erk1/2) (Thr202/Tyr204) antibody (9101, Cell Signaling Technology), anti-p44/42 MAPK (Erk1/2) antibody (9102, Cell Signaling Technology) and as controls, a rabbit polyclonal anti-GAPDH (glyceraldehyde-3-phosphate dehydrogenase) antibody (PA1-987; Affinity Bioreagents) and mouse monoclonal anti-β-Tubulin antibody (556321, BD Pharmingen). The results for UACC-257X2.2 are shown in FIG. 4B, the results for A2058 are shown in FIG. 8B, the results for COLO 829 are shown in FIG. 6B and the results for IPC-298 are shown in FIG. 10.
(§2) Melanoma cell lines A2058, COLO 829, SK23-MEL and IPC-298 (ATCC) were treated with a MEK inhibitor drug (“MEKi-973” or “MEKi-623”), at varying concentrations (0 μM, 0.01 μM, 0.1 μM or 1 μM) by adding the appropriate drug volume to cells in culture for 24 h on four-well dishes.
To test whether the increase in ETBR transcripts due to MEKi treatment also results in any changes in ETBR total protein levels, Western blot experiments were performed on cell lines COLO829 (BRAF^V600E), A2058 (BRAF^V600E), SK23-MEL (BRAF^WT/RAS^WT), or IPC-298 (BRAF^WT/RAS^[…]) which were treated with MEKi-973 as described above. For Western blotting, the following reagents were used: for detection of proteins: an anti-ETBR in-house generated monoclonal antibody 1H1.8.5, anti-Phospho-p44/42 MAPK (Erk1/2) (Thr202/Tyr204) antibody (9101, Cell Signaling Technology), anti-p44/42 MAPK (Erk1/2) antibody (9102, Cell Signaling Technology) and as controls, a rabbit polyclonal anti-GAPDH (glyceraldehyde-3-phosphate dehydrogenase) antibody (PA1-987; Affinity Bioreagents) and mouse monoclonal anti-β-Tubulin antibody (556321, BD Pharmingen). The results for A2058 are shown in FIG. 15A treated with MEKi-623 and 15B treated with MEKi-973, the results for COLO 829 are shown in FIG. 12A treated with MEKi-623 and 12B treated with MEKi-973, the results for SK23-MEL are shown in FIG. 19A treated with MEKi-623 and 19B treated with MEKi-973, and the results for IPC-298 are shown in FIG. 22A treated with MEKi-623 and 22B treated with MEKi-973.

ETBR transcript [1] = assay: ETBR transcript level in melanoma cell lines, Taqman, normalized to RPL19; assay type: cell-based, human; details: A2058 cells, 24 h
Protocol: as §1
(§3) To determine the effect of BRAFi on ETBR and control ribosomal protein L19 (RPL19) transcript levels, the following experiments were performed. Cells treated with RG7204 for 24 h were harvested from plates by scraping and processed for total RNA using Qiashredder and RNeasy mini kits (79654, 74104 from Qiagen, Valencia, Calif.). Taqman assays were set up using reagents from Applied Biosystems (ABI, Foster City, Calif.) and assayed using 7500 Real Time PCR machine and software from ABI. Primer-probe sets were designed with primers flanking a fluorogenic probe dual labeled with Reporter dye FAM and quencher dye TAMRA.
as §2
as §3, with “MEKi” for “BRAFi”, “ETBR” for “ETBR and control ribosomal protein L19 (RPL19)”, “performed as described above in Example 3.” for “performed.”, “either MEKi-973” for “RG7204”

ETBR surface protein = assay: Surface ETBR protein in live melanoma cells, FACS; assay type: cell-based, human; details: 24 h
Protocol: as §1
(§4) To determine whether the observed increases in total ETBR protein level due to BRAFi treatment also results in an increase of ETBR surface protein levels, a fluorescence-activated cell sorting (FACS) analysis was performed. Cells were harvested in PBS with 2.5 mmol/L EDTA and washed in PBS buffer containing 1% FBS. All subsequent steps were carried out at 4° C. Cells were incubated for 1 hour with 3 μg/mL anti ETBR antibody Hu5E9v1, followed by anti-human IgG fluorescent detection reagent (A11013; Invitrogen). Cells were then analyzed with a FACS Calibur flow cytometer (BD Biosciences). The results for UACC-257X2.2 are shown in FIG. 4C, the results for A2058 are shown in FIG. 8C, and the results for COLO 829 are shown in FIG. 6C.
as §2
as §4, with “MEKi” for “BRAFi”, “performed as described above.” for “performed.”, “Biosciences).” for “Biosciences). The results for UACC-257X2.2 are shown in FIG. 4C, the results for A2058 are shown in FIG. 8C, and the results for COLO 829 are shown in FIG. 6C.”

ETBR transcript [2] = assay: PD study, ETBR transcript in A2058 tumors, Taqman, normalized to Hprt1; assay type: in vivo, mice; details: MEKi-973 5 mpk and 10 mpk orally once a day for 3 days
Protocol: A2058 or COLO 829 tumors were grown to an average size of approximately 200 mm^3, whereupon animals were randomized into groups of 5-6 each. For the BRAFi PD study, an appropriate vehicle control (Klucel LF) or RG7204 at doses of 10 mpk or 30 mpk were administered twice a day for 3 days (FIG. 27A). For the MEKi PD study, an appropriate vehicle control or MEKi-973 at doses of 5 mpk and 10 mpk were administered orally once a day for 3 days (FIG. 27B). Flash frozen tumors harvested at end of study were homogenized and processed for RNA and/or protein. Taqman assays were set up using reagents from Applied Biosystems (ABI, Foster City, Calif.) and assayed using 7500 Real Time PCR machine and software from ABI. Primer-probe sets were designed with primers flanking a fluorogenic probe dual labeled with Reporter dye FAM and quencher dye TAMRA. ETBR transcript levels in the tumors were normalized against transcript levels of reference genes such as Hprt1 (hypoxanthine phosphoribosyltransferase 1) or GAPDH (glyceraldehyde 3 phosphate dehydrogenase) using primer and probe sets that were specific to the human homologs of these genes.

Structure (SMILES): O=C(c1ccc(F)c(F)c1Nc1ccc(I)cc1F)N1CC(O)([C@@H]2CCCCN2)C1 [MEKi-973, (S)-(3,4-difluoro-2-((2-fluoro-4-iodophenyl)amino)phenyl)(3-hydroxy-3-(piperidin-2yl)azetidin-1-yl)methanone]
- ETBR total protein level vs untreated control cells (ETBR total protein; A2058 cells (BRAF V600E)): appears to increase the ETBR total protein levels
- ETBR total protein level vs untreated control cells (ETBR total protein; COLO 829 cells (BRAF V600E)): appears to increase the ETBR total protein levels
- ETBR total protein level vs untreated control cells (ETBR total protein; IPC-298 cells (BRAF wild-type, RAS mutant)): appears to increase the ETBR total protein levels
- ETBR total protein level vs untreated control cells (ETBR total protein; SK23-MEL cells (BRAF WT/RAS WT)): appears to increase the ETBR total protein levels
- ETBR transcript vs untreated control cells (ETBR transcript [1]): appears to increase the ETBR transcripts
- surface level of ETBR protein vs untreated control cells (ETBR surface protein; A2058 cells): appears to increase the surface levels of ETBR protein
- surface level of ETBR protein vs untreated control cells (ETBR surface protein; COLO 829 cells): appears to increase the surface levels of ETBR protein
- surface level of ETBR protein vs untreated control cells (ETBR surface protein; IPC-298 cells): appears to increase the surface levels of ETBR protein
- surface level of ETBR protein vs untreated control cells (ETBR surface protein; SK23-MEL cells): appears to increase the surface levels of ETBR protein
- ETBR mRNA in tumors vs control vehicle (ETBR transcript [2]): induces ETBR mRNA in vivo
